Results: patent US7968526B2, “Antisense oligonucleotides directed to ribonucleotide reductase R2 and uses thereof in the treatment of cancer” (Lorus Therapeutics Inc., priority 2003, dated 2011)
Entries after “also recorded” stand apart in the source; their conditions may differ.

Experiments:
[1] = test system: DU145 human prostatic cancer cells; assay: DU145 prostatic tumour xenograft in SCID mice, combination with mitoxantrone (1.5); format: in vivo, human cells in mice
Experimental: After 52 days the mice were sacrificed and the tumours weighed. […] In both experiments, PC-3 human prostatic cancer cells (1×10^7 cells in 100 μl of PBS) were subcutaneously injected into the right flank of 6-7 weeks old male SCID mice. After the size of tumour reached an approximate volume of 50 mm^3, 14 days post tumour cell injection, SEQ ID NO: 1 was administered by bolus infusion into the tail vein every other day at 10 mg/kg 18 times (FIG. 4A) or 17 times (FIG. 4B), respectively. Control animals received saline alone for the same period. Antitumour effect of SEQ ID NO:1 was further compared to that of mitoxantrone (novantrone) alone or in combination. Mitoxantrone was administered intravenously once at the beginning of the treatments at a dose of 2 mg/kg (FIG. 4A) or once a week for four weeks at a reduced dose of 0.8 mg/kg (FIG. 4B). All treatments were stopped at day 50 (FIG. 4A) or 48 (FIG. 4B), respectively. A day after the last treatment, tumours were excised from the animals and their weights were measured. […] In both experiments, DU145 human prostatic cancer cells (1×10^7 cells in 100 μl of PBS) were subcutaneously injected into the right flank of 6-7 weeks old male SCID mice. After the size of tumour reached an approximate volume of 50 mm^3, 13 (FIG. 5A) or 11 (FIG. 5B) days post tumour cell injection, SEQ ID NO:1 was administered by bolus infusion into the tail vein every other day at 10 mg/kg 15 times (FIG. 5A) or 14 times (FIG. 5B), respectively. Control animals received saline alone for the same period. Antitumour effect of SEQ ID NO:1 was further compared to that of mitoxantrone (novantrone) alone or in combination. Mitoxantrone was administered intravenously once at the beginning of the treatments at a dose of 2 mg/kg (FIG. 5A) or once a week for four weeks at a reduced dose of 0.8 mg/kg (FIG. 5B). All treatments were stopped at day 42 (FIG. 5A) or 38 (FIG. 5B), respectively. A day after the last treatment, tumours were excised from the animals and their weights were measured.

[2] = test system: LS513 multi-drug resistant colon carcinoma cells; assay: LS513 multi-drug resistant colon carcinoma xenograft in SCID mice, combination with CPT-11 (2.8); format: in vivo, human cells in mice; settings: SEQ ID NO:1 10 mg/kg i.v. every other day, CPT-11 20 mg/kg/day i.p. 5 days
Experimental: BxPC-3 is a gemcitabine resistant call line. […] Gemcitabine was administered intravenously every three days at a dose of 100 mg/kg. Antitumour activities were estimated by the inhibition of tumour volume, which was measured with caliper. Each point represents mean tumour volume calculated from 10 animals per experimental group. […] Hela S3 is a hydroxyurea resistant cell line. […] Hydroxyurea was administered intraperitoneally every day at a dose of 250 mg/kg for 10 days. Cisplatin was administered intravenously once a week for three weeks at a dose of 4 mg/kg. Antitumour activities were estimated by the inhibition of tumour volume, which was measured with caliper. Each point represents mean tumour volume calculated from 10 animals per experimental group. […] Cisplatin was administered intravenously once a week for three weeks at a dose of 4 mg/kg. Taxol was administered intravenously once a week for three weeks at a dose of 10 mg/kg. Antitumour activities were estimated by the inhibition of tumour volume, which was measured with caliper. Each point represents mean tumour volume calculated from 10 animals per experimental group. […] Taxol was administered i.p. once a week at a dose of 10 mg/kg. Antitumour activities were estimated by the inhibition of tumour volume (FIG. 12A), which was measured with calipers. Each point represents mean tumour volume calculated from 10 animals per experimental group. […] Antitumour activities were estimated by the inhibition of tumour volume, which was measured with caliper. Each point represents mean tumour volume calculated from 9-10 animals per experimental group. […] Antitumour activities were estimated by the inhibition of tumour volume, which was measured with caliper. Each point represents mean tumour volume calculated from 10 animals per experimental group. […] Anti-tumour activity was estimated by the inhibition of tumour volume, which was measured with caliper. Each point represents mean tumour volume calculated from 10 animals per experimental group. […] Antitumour activities were estimated by the inhibition of tumour volume, which was measured with caliper. […]

[3] = Tissue distribution in the monkey (CE method); format: in vivo
Experimental: The toxicokinetics and tissue distribution of SEQ ID NO:1 (and related oligonucleotide metabolites obtained from exonuclease-mediated chain shortening) were determined in rats and monkeys. In addition to investigating the pharmacokinetics and tissue distribution of SEQ ID NO:1, the purpose of the studies was to correlate adverse effects in the animal studies to the concentrations of SEQ ID NO:1 (and metabolites) in tissue and blood. A capillary electrophoresis (CE) method was used to measure the concentrations of SEQ ID NO:1 (and metabolites) in plasma and tissues.
The concentrations of SEQ ID NO:1 (and related n+1, n−1 to n−15 oligonucleotide metabolites) in the following rat and monkey tissues were measured by a validated CE method (Southwest Bio-Labs, Inc.): kidney, liver, spleen, heart, lung, bone marrow (rat), lymph nodes (monkey) and brain tissues. The tissue samples were collected from the designated animals as described in the 21-day toxicity studies: rats, administered bolus intravenous injections of SEQ ID NO:1 every other day at 2, 10, or 50 mg/kg; and monkeys administered SEQ ID NO:1 by continuous intravenous infusion at 2, 10, or 50 mg/kg/day.

[4] = 2 mg/kg/day continuous i.v. infusion, Necropsy Day 22
[5] = 10 mg/kg/day continuous i.v. infusion, Necropsy Day 22
[6] = 50 mg/kg/day continuous i.v. infusion, Necropsy Day 22
[7] = 50 mg/kg/day continuous i.v. infusion, Necropsy Day 43

Which results are given for “5′-GGCTAAATCGCTCCACCAAG-3′ (all phosphorothioate, sugars by position and methylation of C not given here) [SEQ ID NO: 1, fully phosphorothioated antisense oligonucleotide that hybridizes to the coding region of R2 mRNA]”?
Tumour weight as % of saline control ([1]; DU145 (prostatic), SCID, second of two printed values (two independent experiments), SEQ ID NO:1 10 mg/kg i.v. every other day, mitoxantrone i.v.): 41%; Antitumour effect (tumour weight, FIG. 5A) ([1]; DU145, SCID mice, SEQ ID NO:1 10 mg/kg i.v. every other day 15 times, mitoxantrone 2 mg/kg i.v. once): significant delay of tumour growth compared to saline control; Tumour weight as % of saline control ([2]; LS513 (colon) multi-drug resistant (CPT-11 sensitive), SCID): 49%; Antitumour effect (FIG. 16) ([2]; LS513, SCID mice): significant delay of tumour growth compared to saline control; also recorded: as effective as CPT-11; Rank order of tissue concentrations [3]: kidney>liver>bone marrow>spleen>heart>lung; Mean Concentration SEQ ID NO: 1, Brain [3, 4]: BDL (below detectable limits (1 μg/g rat; 0.2 μg/g monkey)); Mean Concentration SEQ ID NO: 1, Heart [3, 4]: BDL (below detectable limits (1 μg/g rat; 0.2 μg/g monkey)); Mean Concentration SEQ ID NO: 1, Kidney [3, 4]: 176.2 µg/g; Mean Concentration SEQ ID NO: 1, Liver [3, 4]: 137.8 µg/g; Mean Concentration SEQ ID NO: 1, Lung [3, 4]: BDL (below detectable limits (1 μg/g rat; 0.2 μg/g monkey)); Mean Concentration SEQ ID NO: 1, Lymph node [3, 4]: 2.2 µg/g; Mean Concentration SEQ ID NO: 1, Spleen [3, 4]: 17.8 µg/g; Mean Concentration total metabolites (n + 1 through n − 13), Brain [3, 4]: BDL (below detectable limits (1 μg/g rat; 0.2 μg/g monkey)); Mean Concentration total metabolites (n + 1 through n − 13), Heart [3, 4]: BDL (below detectable limits (1 μg/g rat; 0.2 μg/g monkey)); Mean Concentration total metabolites (n + 1 through n − 13), Kidney [3, 4]: 605.8 µg/g; Mean Concentration total metabolites (n + 1 through n − 13), Liver [3, 4]: 425.7 µg/g; Mean Concentration total metabolites (n + 1 through n − 13), Lung [3, 4]: BDL (below detectable limits (1 μg/g rat; 0.2 μg/g monkey)); Mean Concentration total metabolites (n + 1 through n − 13), Lymph node [3, 4]: 21.0 µg/g; Mean Concentration total metabolites (n + 1 through n − 13), Spleen [3, 4]: 71.4 µg/g; Mean Concentration SEQ ID NO: 1, Brain [3, 5]: BDL (below detectable limits (1 μg/g rat; 0.2 μg/g monkey)); Mean Concentration SEQ ID NO: 1, Heart [3, 5]: 1.9 µg/g; Mean Concentration SEQ ID NO: 1, Kidney [3, 5]: 246.5 µg/g; Mean Concentration SEQ ID NO: 1, Liver [3, 5]: 129.0 µg/g; Mean Concentration SEQ ID NO: 1, Lung [3, 5]: 1.6 µg/g; Mean Concentration SEQ ID NO: 1, Lymph node [3, 5]: 13.1 µg/g; Mean Concentration SEQ ID NO: 1, Spleen [3, 5]: 82.1 µg/g; Mean Concentration total metabolites (n + 1 through n − 13), Brain [3, 5]: BDL (below detectable limits (1 μg/g rat; 0.2 μg/g monkey)); Mean Concentration total metabolites (n + 1 through n − 13), Heart [3, 5]: 4.6 µg/g; Mean Concentration total metabolites (n + 1 through n − 13), Kidney [3, 5]: 886.1 µg/g; Mean Concentration total metabolites (n + 1 through n − 13), Liver [3, 5]: 486.2 µg/g; Mean Concentration total metabolites (n + 1 through n − 13), Lung [3, 5]: 4.2 µg/g; Mean Concentration total metabolites (n + 1 through n − 13), Lymph node [3, 5]: 86.2 µg/g; Mean Concentration total metabolites (n + 1 through n − 13), Spleen [3, 5]: 198.3 µg/g; Mean Concentration SEQ ID NO: 1, Brain [3, 6]: BDL (below detectable limits (1 μg/g rat; 0.2 μg/g monkey)); Mean Concentration SEQ ID NO: 1, Heart [3, 6]: 46.3 µg/g; Mean Concentration SEQ ID NO: 1, Kidney [3, 6]: 1425.2 µg/g; Mean Concentration SEQ ID NO: 1, Liver [3, 6]: 316.6 µg/g; Mean Concentration SEQ ID NO: 1, Lung [3, 6]: 39.2 µg/g; Mean Concentration SEQ ID NO: 1, Lymph node [3, 6]: 253.5 µg/g; Mean Concentration SEQ ID NO: 1, Spleen [3, 6]: 260.6 µg/g; Mean Concentration total metabolites (n + 1 through n − 13), Brain [3, 6]: BDL (below detectable limits (1 μg/g rat; 0.2 μg/g monkey)); Mean Concentration total metabolites (n + 1 through n − 13), Heart [3, 6]: 113.8 µg/g; Mean Concentration total metabolites (n + 1 through n − 13), Kidney [3, 6]: 3230.8 µg/g; Mean Concentration total metabolites (n + 1 through n − 13), Liver [3, 6]: 806.6 µg/g; Mean Concentration total metabolites (n + 1 through n − 13), Lung [3, 6]: 124.0 µg/g; Mean Concentration total metabolites (n + 1 through n − 13), Lymph node [3, 6]: 801.2 µg/g; Mean Concentration total metabolites (n + 1 through n − 13), Spleen [3, 6]: 1097 µg/g; Mean Concentration SEQ ID NO: 1, Brain [3, 7]: BDL (below detectable limits (1 μg/g rat; 0.2 μg/g monkey)); Mean Concentration SEQ ID NO: 1, Heart [3, 7]: 0.5 µg/g; Mean Concentration SEQ ID NO: 1, Kidney [3, 7]: 1.6 µg/g; Mean Concentration SEQ ID NO: 1, Liver [3, 7]: 0.9 µg/g; Mean Concentration SEQ ID NO: 1, Lung [3, 7]: BDL (below detectable limits (1 μg/g rat; 0.2 μg/g monkey)); Mean Concentration SEQ ID NO: 1, Lymph node [3, 7]: 59.9 µg/g; Mean Concentration SEQ ID NO: 1, Spleen [3, 7]: 57.2 µg/g; Mean Concentration total metabolites (n + 1 through n − 13), Brain [3, 7]: BDL (below detectable limits (1 μg/g rat; 0.2 μg/g monkey)); Mean Concentration total metabolites (n + 1 through n − 13), Heart [3, 7]: 3.5 µg/g; Mean Concentration total metabolites (n + 1 through n − 13), Kidney [3, 7]: 10.5 µg/g; Mean Concentration total metabolites (n + 1 through n − 13), Liver [3, 7]: 2.3 µg/g; Mean Concentration total metabolites (n + 1 through n − 13), Lung [3, 7]: BDL (below detectable limits (1 μg/g rat; 0.2 μg/g monkey)); Mean Concentration total metabolites (n + 1 through n − 13), Lymph node [3, 7]: 371.3 µg/g; Mean Concentration total metabolites (n + 1 through n − 13), Spleen [3, 7]: 367.8 µg/g; Concentrations in the brain ([3]; lower limit for detection 0.2 μg/g): below the limits of detection
